Experimental findings from patent publication US6727241B2, “Anti-inflammatory compositions and methods of use” (Chemocentryx, priority 2002, dated 2004) are described below.

For experiment [1], the target named is T1, CCR1 (Homo sapiens, UniProt P32246).
T1 sequence (P32246 1-355): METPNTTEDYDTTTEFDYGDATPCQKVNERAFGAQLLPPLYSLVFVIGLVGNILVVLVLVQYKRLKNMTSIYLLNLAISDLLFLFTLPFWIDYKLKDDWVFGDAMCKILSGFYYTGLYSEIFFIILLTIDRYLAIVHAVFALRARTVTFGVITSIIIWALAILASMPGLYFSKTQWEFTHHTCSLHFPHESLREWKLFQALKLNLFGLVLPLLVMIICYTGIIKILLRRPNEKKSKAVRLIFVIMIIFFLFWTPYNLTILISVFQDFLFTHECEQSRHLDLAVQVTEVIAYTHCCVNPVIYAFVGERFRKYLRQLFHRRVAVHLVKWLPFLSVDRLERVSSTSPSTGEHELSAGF
As to the kind of experiment: Inhibition of CCR1 ligand binding (125I labeled MIP-1α binding to CCR1 expressing cells). Also noted: expressed in transfected cells; host or cells: NSO murine myeloma (CCR1-NSO) or HEK 293 (CCR1-293). How it is done: CCR1 expressing cells were centrifuged and resuspended in assay buffer (20 mM HEPES pH 7.1, 140 mM NaCl, 1 mM CaCl2, 5 mM MgCl2, and with 0.2% bovine serum albumin) to a concentration of 5.6×10^6 cells/ml (CCR1-NSO) or 2.2×10^6 cells/ml ([…].). Screening assays were set up as follows. First, 0.09 ml of cells (5×10^5 CCR1-NSO cells/well or 2×10^5 CCR1-293 cells/well) was added to the assay plates containing the compounds, giving a final concentration of ˜2-10 μM each compound. Then 0.09 ml of ^125I labeled MIP-1α (obtained from Amersham; Piscataway, N.J.) diluted in assay buffer to a final concentration of ˜50 pM, yielding ˜30,000 cpm per well, was added, the plates sealed and incubated for approximately 3 hours at 4° C. on a shaker platform. Reactions were aspirated onto GF/B glass filters pre-soaked in 0.3% polyethyleneimmine (PEI) solution, on a vacuum cell harvester (Packard Instruments; Meriden, Conn.). Scintillation fluid (50 μl; Microscint 20, Packard Instruments) was added to each well, the plates were sealed and radioactivity measured in a Top Count scintillation counter (Packard Instruments). Control wells containing either diluent only (for total counts) or excess MIP-1α or MIP-1β ([…], for non-specific binding) were used to calculate the percent of total inhibition for each set of compounds. After testing the CLIP plates, wells with 40% or greater inhibition were confirmed. If confirmed, the individual compounds of the CLIP's were tested for reactivity (deconvolution step). IC50 values are those concentrations required to reduce the binding of labeled MIP-1α to the receptor by 50%.
To identify small organic molecules that prevent the receptor CCR1 from binding ligand, an assay was employed that detected radioactive ligand (MIP-1α) binding to cells expressing exogenous CCR1 on the cell surface.
A NSO murine myeloma cell line (CCR1-NSO) and a human embryonic kidney (HEK) carcinoma cell line (CCR1-293) were constructed that constitutively expressed human CCR1 on the cell surface; these cells lack other chemokine receptors that bind MIP-1α. Equal numbers of cells were added to each well in the CLIP plate, where each pool contained 10 candidate organic compounds. The cells were then incubated with radio labeled MIP-1α. Unbound ligand was removed by washing the cells, and bound ligand was determined by quantifying radioactive counts. Cells that were incubated without any organic compound gave total counts; non-specific binding was determined by incubating the cells with unlabeled ligand and labeled ligand. Percent inhibition was determined by the equation:
% inhibition=1−[(sample cpm)−(nonspecific cpm)]/[(total cpm)−(nonspecific cpm)]×100
To ascertain a candidate compound's affinity for CCR1 as well as confirm its ability to inhibit ligand binding, inhibitory activity was titered over 1×10^−8 to 1×10^−4 M range of compound concentration. The assay was essentially the same as for the CLIP screens, except the amount of compound was varied; cell number and ligand concentration were held constant. Only those compounds that were commercially available at the time of the experiments were titered. Of the 22 candidates identified, the following 16 were subjected to dose response experiments: CCX-3343, CCX-1057, CCX-1307, CCX-1513, CCX-238, CCX-3345, CCX-3493, CCX-4425, CCX-4462, CCX-4682, CCX-469, CCX-5062, CCX-5119, CCX-541, CCX-6019 and CCX-6530.

Experiment [2] has as its system bradykinin-induced calcium signaling. As to the kind of experiment: Calcium mobilization in response to bradykinin (specificity control). Also noted: key: +: pulse observed; −: no pulse observed; n.s.: non-specific signal. To be noted: CCR1-293 or THP-1 cells loaded with INDO-1; compound 10 to 20 μM; bradykinin added after MIP-1α. It counts as cell-based, human. How it is done:
(§1) To detect the release of intracellular stores of calcium, cultured cells were incubated with 3 μM of INDO-1AM dye (Molecular Probes; Eugene, Oreg.) in cell media for 45 minutes at room temperature and washed with phosphate buffered saline (PBS). After INDO-1AM loading, the cells were resuspended in flux buffer (Hank's balanced salt solution (HBSS) and 1% FBS). Calcium mobilization was measured using a Photon Technology International spectrophotometer (Photon Technology International; New Jersey) with excitation at 350 nm and dual simultaneous recording of fluorescence emission at 400 nm and 490 nm. Relative intracellular calcium levels were expressed as the 400 nm/490 nm emission ratio. Experiments were performed at 37° C. with constant mixing in cuvettes each containing 10^6 cells in 2 ml of flux buffer. The chemokine ligands may be used over a range from 1 to 100 nM. The emission ratio was plotted over time (typically 2-3 minutes). Candidate ligand blocking compounds (10 to 20 μM) were added at 10 seconds, followed by chemokines at 60 seconds (MIP-1α; R&D Systems; Minneapolis, Minn.) and control […] (bradykinin; ICN Pharmaceutical, Costa Mesa, Calif.) at 150 seconds. In some experiments, candidate blocking compounds and cells were added simultaneously, and MIP-1α was added 40 seconds later.
(§2) Calcium ion release in response to MIP-1α binding was measured using the cell permeable INDO-1/AM indicator, which fluoresces in the presence of free, but not chelated, calcium ions. CCR1-293 or THP-1 cells were loaded with INDO-1 and assayed for calcium release in response to MIP-1α addition. To control for specificity, a second, non-CCR1 binding […], bradykinin, was added, which also signals via a seven transmembrane receptor. Without compound, a pulse of fluorescent signal will be seen upon MIP-1α addition.
In general terms: Calcium assays in cells follow changes in intracellular calcium, usually with a dye or a luminescent sensor.

Experiment [3] has as its target T1, CCR1. As to the kind of experiment: Calcium mobilization in response to MIP-1α (INDO-1). It counts as cell-based. Also on record: expressed in transfected cells; host or cells: HEK 293 (CCR1-293), pIRESpuro vector; key to MIP-1α: calcium pulse: +: pulse observed; −: no pulse observed; n.s.: non-specific signal. The following applies: for MIP-1α: calcium pulse: CCR1-293 or THP-1 cells loaded with INDO-1, compound 10 to 20 μM added before MIP-1α; for Comments (inhibition of calcium signaling) / Inhibition of CCR1 calcium signaling, result in words: Table 2; for Inhibition of CCR1 calcium signaling, result in words: MIP-1α versus bradykinin. On the procedure: as §1
CCR1 is a seven transmembrane, G-protein linked receptor. A hallmark of signaling cascades induced by the ligation of such receptors is the pulse-like release of calcium ions from intracellular stores. Calcium mobilization assays were performed to determine if the candidate MIP-1α inhibitory compounds were able to also block CCR1 signaling. To be useful, candidate compounds able to inhibit specifically ligand binding and signaling were desired.
as §2

[4] abbreviates: compound titered 1×10^−8 to 1×10^−4 M, cells not given.
[5] abbreviates: dose response, cells not given, read-out: CCR1 affinity (MIP-1α binding).
Where [6] appears, read: CCR1-NSO cells, compound titered 1×10^−8 to 1×10^−4 M, read-out: IC50 (Inhibition Constant; μM), CCR1-MIP-1α binding.
Setting [7] is: CCR1-293 cells, compound titered 1×10^−8 to 1×10^−4 M, * = partially blocked MIP-1α binding at the highest tested concentration, read-out: IC50 (Inhibition Constant; μM), CCR1-MIP-1α binding.

Read-outs that look alike come from different tables or passages of the source.

On to `CC1CCC(C(C)C)C(OCC(O)CN2CCN(c3ccc(F)cc3)CC2)C1` (stereo not shown) [CCX-3343], for which, at CCR1 [1] (setting [4]), the “Dose-response inhibition of MIP-1α binding, result in words” value (shortened to “Dose-response inhibition”) is listed as “failed to completely inhibit MIP-1α binding at the highest tested concentration”. The IC50 at CCR1 [1] (setting [5]) was ~2 µM.

In the case of `Cc1ccc(C(/C(Cl)=C(\Cl)C(=O)O)c2ccc(C)cc2C)c(C)c1` [CCX-541], the IC50 at CCR1 [1] (setting [6]) came to 0.4 µM. Besides, the “Bradykinin: calcium pulse” value in experiment [2] is “n.s”. On CCR1 [3], the “MIP-1α: calcium pulse” value is on record as “n.s”; the “Comments (inhibition of calcium signaling)” value was “Calcium levels increased non-”; the “Inhibition of CCR1 calcium signaling, result in words” value (“Inhibition of CCR1 calcium signaling” below) is “non-specific effects on calcium levels”.

As to `O=C(O)C1=C(Sc2ccc(Cl)cc2)CSC1` [CCX-4682], on CCR1 [1] (setting [6]), the IC50 was found to be 44 µM.

Take `O=C1NCCCCC1N(Cc1ccccc1F)C(=O)C(c1ccccc1)c1ccccc1` (stereo not shown) [CCX-469]: the IC50 on CCR1 [1] (setting [7]) worked out at 2 µM. Further, the IC50 at CCR1 [1] (setting [6]) was 0.6 µM. In addition, the “Bradykinin: calcium pulse” value in experiment [2] is “+”. Further, on CCR1 [3], the “MIP-1α: calcium pulse” value was “−”; the “Comments (inhibition of calcium signaling)” value is “Clear and specific”; the “Inhibition of CCR1 calcium signaling” value was “able to significantly and specifically inhibit signaling from CCR1”.

As for `CC1CCC(C(C)C)C(OCC(O)CN2CCC(Cc3ccccc3)CC2)C1` (stereo not shown) [CCX-3345], on CCR1 [1] (setting [4]), the “Dose-response inhibition” value is reported as “failed to completely inhibit MIP-1α binding at the highest tested concentration”. Also, at CCR1 [1] (setting [5]), the IC50 was ~2 µM.

In the case of `S=c1[nH]nc(-c2ccc(Cl)cc2)n1-c1cccnc1` [CCX-3493], the IC50 at CCR1 [1] (setting [7]) worked out at 18 µM. Also, the IC50 at CCR1 [1] (setting [6]) came out at 1.7 µM. Further, in experiment [2], the “Bradykinin: calcium pulse” value is recorded as “+”. For the same compound, on CCR1 [3], the “MIP-1α: calcium pulse” value is “+”; the “Comments (inhibition of calcium signaling)” value was “No inhibition”; the “Inhibition of CCR1 calcium signaling” value is on record as “did not affect signaling, whether MIP-1α or bradykinin induced”.

With `O=C(c1ccc(Cl)c(Cl)c1)C12CN3CN(CN(C3)C1)C2` [CCX-1307], the IC50 on CCR1 [1] (setting [7]) came to 2 µM.

In the case of `O=C(NN(Cc1c(F)cccc1Cl)c1ccccc1)C(Cl)(Cl)Cl` [CCX-6019], at CCR1 [1] (setting [6]), the IC50 turned out to be 25 µM.

`O=C(C[n+]1ccc(-c2ccccc2)cc1)Nc1ccc([N+](=O)[O-])cc1` [CCX-1057]: the IC50 at CCR1 [1] (setting [7]) is 2 µM.

`c1ccc(C2C3=C(Nc4nc5ccccc5n42)c2ccccc2CCC3)cc1` (stereo not shown) [CCX-1080]: at CCR1 [1] (setting [7]), the IC50 stood at 2 µM.

With `CC[n+]1c(/C=C/C=C2/N(C)c3ccccc3C2(C)C)ccc2c1c1cc(Br)ccc1n2C` [CCX-2324], the IC50 on CCR1 [1] (setting [7]) came to 2 µM.

With `O=C(O)c1ccc2c(c1)C1C=CCC1C(C(=O)O)N2` (stereo not shown) [CCX-1959], on CCR1 [1] (setting [6]), the IC50 was determined as 0.36 µM.

Take `COC(=O)c1cc(C#N)c(Sc2c([N+](=O)[O-])cc(C(F)(F)F)cc2[N+](=O)[O-])nc1C(OC)OC` [CCX-5119]: at CCR1 [1] (read-out: IC50 (Inhibition Constant; μM), CCR1-MIP-1α binding, CCR1-293 cells, compound titered 1×10^−8 to 1×10^−4 M, * = partially blocked MIP-1α binding at the highest tested concentration), the IC50 turned out to be 45 µM.

As for `CC(=O)C1=C(O)C(=O)N(c2ccc(Br)cc2)C1c1ccc(F)cc1` (stereo not shown) [CCX-5062], the “Dose-response inhibition” value at CCR1 [1] (setting [4]) is “failed to completely inhibit MIP-1α binding at the highest tested concentration”. At CCR1 [1] (setting [5]), the IC50 is ~2 µM.
